Assays:
IDO activity = experiment: Serum kynurenine-to-tryptophan (kyn:trp) ratio as measure of IDO activity in treated mCRPC patients; assay type: in vivo, human; conditions: patients with mCRPC
Experimental: Tryptophan and kynurenine concentrations were measured directly in serum samples using a clinically validated LC/MS method. All analysis was performed by Worldwide Clinical Trials (Morrisville, N.C.) by personnel blinded to the sample source.
Patients with prostate cancer treated with an anti-tumor vaccine and/or PD-1 develop increased IDO activity and expression. […] Because IDO is also an IFNγ-regulated gene, we questioned whether prostate cancer immunotherapy similarly elicited increases in IDO expression. We have recently reported the results of a trial in which patients with mCRPC were treated with a DNA vaccine encoding PAP alone for 12 weeks, followed by pembrolizumab over the subsequent 12 weeks, or were treated with both agents for 12 weeks (17). Sera was assessed for kynurenine and tryptophan concentrations at baseline and at 12 and 24 weeks, effectively permitting an analysis of changes in IDO activity following treatment with vaccine alone, pembrolizumab alone, or the combination. […] IFNγ concentration was also directly evaluated in sera samples.

[1] = tested on: PAP-specific IFNγ-secreting T cells (PBMC); experiment: IFNγ ELISPOT of patient PBMC stimulated with PAP antigen; assay type: cell-based, human; conditions: PBMC from 22 patients after vaccine and pembrolizumab; IDO enzyme 5 ug/mL or 1-MDT 2 mM; 48 hours; changes not statistically significant
Experimental: ELISPOT for measuring IFNγ release was performed as previously described (21). For these analyses, cryopreserved PBMC were thawed, and cultured with PAP protein antigen (Fitzgerald Industries, Acton, Mass.), media alone, or phytohemaglutinin (PHA). Stimulations were also conducted in the presence of IDO enzyme (5 ug/mL) or 1-MDT (2 mM). After 48 hours, plates were developed and spots enumerated using an automated ELISPOT reader (ImmunoSpot, CTL, Shaker Heights, Ohio).
IDO activity is associated with modest decrease in vaccine antigen-specific T-cell function.

T-cell activation = conditions: literature (ref 22); cited from earlier work

| Compound | median kyn:trp ratio post-treatment (IDO activity; after 12 weeks of treatment) | median kyn:trp ratio pre-treatment (IDO activity; before the 12-week treatment period) | detection of PAP-specific IFNγ-secreting cells by ELISPOT [1] | effect on T-cell activation in vitro (T-cell activation) |
| --- | --- | --- | --- | --- |
| pembrolizumab | 0.066 | 0.061 | – | – |
| IDO enzyme: indoleamine 2,3 dioxygenase enzyme added to the PBMC cultures | – | – | tended to suppress | – |
| Cn1cc(C[C@H](N)C(=O)O)c2ccccc21 [1-methyltryptophan] | – | – | increased the detection of IFNγ-secreting PAP-specific cells | enhance T-cell activation in vitro |

— patent US20220218809A1, “IDO ACTIVITY AS A MARKER OF TUMOR IMMUNE ESCAPE AND IDO INHIBITORS AS A MEANS OF ENHANCING T CELLS RESPONSE TO ANTIGEN SPECIFIC VACCINE” (Wisconsin Alumni Research Foundation, priority 2018, published 2022)
